Legend:
Format in all cases: biochemical
[1] = test system: Thielavia terrestris GH61E polypeptide; experiment: Variable pH PASC conversion assay (Examples 29, 30) with Thielavia terrestris GH61E polypeptide; details: gallic acid 0.2% w/w + Thielavia terrestris GH61E polypeptide (10 mg/g) + beta-glucosidase (10 mg/g), 72 hours, 50° C.
[2] = biological target: Aspergillus fumigatus GH61B polypeptide (Aspergillus fumigatus, UniProt Q4WP32); experiment: Variable pH PASC conversion assay (Examples 29, 30) with Aspergillus fumigatus GH61B polypeptide; details: gallic acid 0.2% w/w + Aspergillus fumigatus GH61B polypeptide (10 mg/g) + beta-glucosidase (10 mg/g), 72 hours, 50° C.
[3] = biological target: T1, T. aurantiacus GH61A polypeptide (Thermoascus aurantiacus, UniProt G3XAP7, N13Y); experiment: Microcrystalline cellulose conversion assay II (Examples 10, 11), T. reesei CEL7A cellobiohydrolase I + A. oryzae CEL3A beta-glucosidase; details: 72 hours, 50° C.
Description: A 5% microcrystalline cellulose slurry was prepared by addition of 2.5 g of AVICEL® PH101 to a graduated 50 ml screw-cap conical tube followed by approximately 40 ml of deionized water. Each conical tube was then mixed thoroughly by shaking/vortexing, and adjusted to 50 ml total with deionized water and mixed again. For samples containing dioxy compounds, a similar slurry was prepared by the addition of 100 mg of solid dioxy compound and 2.5 g of AVICEL® PH101 to a graduated 50 ml screw-cap conical tube followed by approximately 40 ml of deionized water. Each conical tube was then mixed thoroughly by shaking/vortexing, and adjusted to 50 ml total with deionized water and mixed again.
The dioxy compounds assayed include caffeic acid, dichlorophenolindophenol (DCPIP), ethyl gallate, gallic acid, 3,4-dihydroxybenzoic acid, pyrocatechol, pyrogallol, sinapinic acid (3,5 dimethoxy-4-hydroxy cinnamic acid), and tannic acid.
In all cases, the contents of the tube (5% microcrystalline cellulose slurry with or without 0.2% dioxy compound) were then quickly transferred to a 100 ml beaker and stirred rapidly with a magnetic stirrer. Five hundred μl aliquots of the 5% AVICEL® slurry were pipetted into wells of a 2.0 ml 96-deepwell plate (Axygen, Union City, Calif.) using a 1000 μl micropipette with a wide aperture tip (end of tip cut off about 2 mm from the base). One hundred μl of deionized water and 300 μl of 3.33 mM MnSO4-500 mM sodium acetate pH 5 were then added to each well. Enzyme mixtures were prepared and then added simultaneously to all wells in a volume of 100 μl, for a total of 1 ml in each reaction. […] All experiments reported were performed in triplicate.
Primary analysis of the hydrolysis reactions was performed using an AGILENT® 1100 HPLC with CHEMSTATION® software equipped with an AMINEX™ HPX-87H column. After approximately 4 days, the deep-well plate was removed from the incubator and chilled overnight to 4° C. The plate was then mixed well by inversion and briefly centrifuged at 52×g in a SORVALL® RT7 centrifuge for 10 seconds. Samples were then mixed by pipetting, and 200 μl from each well were transferred to a MULTISCREEN® HV centrifuge filter plate assembly. The centrifuge filter plate assembly was centrifuged at 2000 rpm in a SORVALL® RT7 centrifuge for 20 minutes. […] Sugars were detected using a refractive index detector with quantification by integration compared to purified sugar standards.
(§1) All HPLC data processing was performed using MICROSOFT EXCEL™ software. […] In this assay only glucose was measured since beta-glucosidase was at high levels in all samples but the controls. The degree of cellulose conversion was calculated using Equation 1. Triplicate data points were averaged and standard deviation was calculated.
The microcrystalline cellulose hydrolysis assay was performed as described in Example 10.
Data were collected and analyzed, as described in Example 10, after 72 hours of incubation at 50° C.

[4] = biological target: T1, T. aurantiacus GH61A polypeptide; experiment: Phosphoric acid swollen cellulose (PASC) hydrolysis assay (Examples 18, 19); details: T. aurantiacus GH61A polypeptide (20 mg/g) + A. oryzae CEL3A beta-glucosidase (20 mg/g), no gallic acid; 72 hours, 50° C.
Description: A 1% phosphoric acid swollen cellulose (PASC) slurry was prepared from AVICEL® PH101 using the protocol described by Zhang et al., 2006, Biomacromolecules 7: 644-648.
The 1.0% PASC slurry prepared as described in Example 17 was thoroughly resuspended by shaking, and quickly transferred to a 100 ml beaker and stirred rapidly with a magnetic stirrer. Five hundred μl aliquots of the 1.0% PASC slurry were pipetted into wells of a 2.0 ml 96-deepwell plate (Axygen, Union City, Calif., USA) using a 1000 μl micropipette with a wide aperture tip (end of tip cut off about 2 mm from the base). One hundred μl of 10 mM MnSO4-500 mM sodium acetate pH 5 were then added to each well. […]
Primary analysis of the hydrolysis reactions was performed using an AGILENT® 1100 HPLC with CHEMSTATION® software equipped with an AMINEX™ HPX-87H column. […] Sugars were detected using a refractive index detector with quantification by integration compared to purified sugar standards.
as §1, with “Percent” for “The degree of cellulose”, “calculated. […]” for “calculated.”
Data were collected and analyzed, as described in Example 18, after 72 hours of incubation at 50° C.

Sequence of Aspergillus fumigatus GH61B polypeptide (Q4WP32 22-250): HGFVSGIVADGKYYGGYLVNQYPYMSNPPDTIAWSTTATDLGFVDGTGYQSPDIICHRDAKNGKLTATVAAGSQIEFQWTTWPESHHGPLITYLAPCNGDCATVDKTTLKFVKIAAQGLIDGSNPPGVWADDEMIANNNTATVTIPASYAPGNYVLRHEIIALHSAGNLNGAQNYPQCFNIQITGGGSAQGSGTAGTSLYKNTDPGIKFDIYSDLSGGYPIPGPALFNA

O=C(O)c1cc(O)c(O)c(O)c1 [gallic acid]
conversion of phosphoric acid swollen cellulose ([1]; pH 4): 36.3±3.2% | conversion of phosphoric acid swollen cellulose ([1]; pH 5): 41.7±3.9% | conversion of phosphoric acid swollen cellulose ([1]; pH 6): 33.7±0.2% | conversion of phosphoric acid swollen cellulose ([1]; pH 7.5): 23.8±3.0% | conversion of phosphoric acid swollen cellulose ([2]; pH 4): 21.7±3.0% | conversion of phosphoric acid swollen cellulose ([2]; pH 5): 23.8±1.4% | conversion of phosphoric acid swollen cellulose ([2]; pH 6): 17.3±0.3% | conversion of phosphoric acid swollen cellulose ([2]; pH 7.5): 5.6±0.7% | conversion (hydrolysis) of the microcrystalline cellulose ([3]; dioxy compound 0.1% w/w alone, no enzymes): no significant hydrolysis

B1: T. aurantiacus GH61A polypeptide: GH61A polypeptide having cellulolytic enhancing activity (SEQ ID NO: 14), recombinantly produced in Aspergillus oryzae JaL250 (protein, listed as Thermoascus aurantiacus)
chain: MSFSKIIATAGVLASASLVAGHGFVQNIVIDGKYYGGYLVNQYPYMSNPPEVIAWSTTATDLGFVDGTGYQTPDIICHRGAKPGALTAPVSPGGTVELQWTPWPDSHHGPVINYLAPCNGDCSTVDKTQLEFFKIAESGLINDDNPPGIWASDNLIAANNSWTVTIPTTIAPGNYVLRHEIIALHSAQNQDGAQNYPQCINLQVTGGGSDNPAGTLGTALYHDTDPGILINIYQKLSSYIIPGPPLYTG
conversion of the microcrystalline cellulose ([3]; T. aurantiacus GH61A polypeptide (10 mg/g) + cellobiohydrolase I + beta-glucosidase (5 mg/g each), no dioxy compound): 21.4±0.5% | conversion of PASC [4]: 2.6±0.1%
